Test results: patent publication US8802597B2, “Herbicidal pyrimidines” (E I du Pont de Nemours and Company, priority 2003, dated 2014)

Legend:
Assay in all cases: Test G pre/postemergence
Assay type in all cases: in vivo
[1] = tested on: large crabgrass (Digitaria sanguinalis)
Summary of the method: (§1)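 Test chemicals in non-phytotoxic solvent with surfactant applied preemergence to sown seeds or nutlets and postemergence to plants 2–18 cm tall (1- to 4-leaf stage). Greenhouse-held 12–21 days, then visually rated against untreated controls on a 0 (no effect) to 100 (complete control) scale.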

[2] = tested on: prickly sida (Sida spinosa)
Summary of the method: as §1

[3] = tested on: broadleaf signalgrass (Brachiaria platyphylla)
Summary of the method: as §1

[4] = tested on: quackgrass (Elytrigia repens)
Summary of the method: as §1

[5] = tested on: goosegrass (Eleusine indica)
Summary of the method: as §1

[6] = tested on: common chickweed (Stellaria media); conditions: Preemergence, scale 0-100
Summary of the method: as §1

[7] = tested on: pitted morningglory (Ipomoea lacunosa)
Summary of the method: as §1

[8] = tested on: green foxtail (Setaria viridis)
Summary of the method: as §1

[9] = tested on: field bindweed (Convolvulus arvensis)
Summary of the method: as §1

[10] = tested on: common mallow (Malva sylvestris)
Summary of the method: as §1

[11] = tested on: black mustard (Brassica nigra)
Summary of the method: as §1

[12] = tested on: annual bluegrass (Poa annua)
Summary of the method: as §1

[13] = tested on: barnyardgrass (Echinochloa crus-galli)
Summary of the method: as §1

[14] = tested on: southern sandbur (Cenchrus echinatus)
Summary of the method: as §1

[15] = Postemergence, 8 g ai/ha, scale 0 to 100
[16] = Postemergence, 16 g ai/ha, scale 0 to 100
[17] = Postemergence, 31 g ai/ha, scale 0 to 100
[18] = Postemergence, 62 g ai/ha, scale 0 to 100
[19] = Preemergence, 8 g ai/ha, scale 0-100
[20] = Preemergence, 16 g ai/ha, scale 0-100
[21] = Preemergence, 31 g ai/ha, scale 0-100
[22] = Preemergence, 62 g ai/ha, scale 0-100

CCOC(=O)c1nc(-c2ccc(Cl)cc2)nc(N)c1Cl [Compound 64, ethyl 6-amino-5-chloro-2-(4-chlorophenyl)-4-pyrimidinecarboxylate]
65: Plant response rating, Prickly Sida [2, 16] | Plant response rating, Morningglory [7, 18] | Plant response rating, Bindweed, Field [9, 22] | Plant response rating, Mallow [10, 15]
60: Plant response rating, Bindweed, Field [9, 15]
40: Plant response rating, Prickly Sida [2, 15]
20: Plant response rating, Quackgrass [4, 16] | Plant response rating, Quackgrass [4, 17] | Plant response rating, Goosegrass [5, 18] | Plant response rating, Morningglory [7, 17] | Plant response rating, Black Mustard [11, 21] | Plant response rating, Barnyardgrass [13, 16] | Plant response rating, Barnyardgrass [13, 17] | Plant response rating, Barnyardgrass [13, 18] | Plant response rating, Sandbur [14, 17] | Plant response rating, Sandbur [14, 18]
90: Plant response rating, Bindweed, Field [9, 18] | Plant response rating, Mallow [10, 17] | Plant response rating, Mallow [10, 18]
35: Plant response rating, Crabgrass, Large [1, 22] | Plant response rating, Quackgrass [4, 18] | Plant response rating, Black Mustard [11, 22]
30: Plant response rating, Crabgrass, Large [1, 15] | Plant response rating, Prickly Sida [2, 21] | Plant response rating, Signalgrass [3, 18]
50: Plant response rating, Crabgrass, Large [1, 16] | Plant response rating, Prickly Sida [2, 22]
75: Plant response rating, Prickly Sida [2, 17] | Plant response rating, Prickly Sida [2, 18]
0: Plant response rating, Crabgrass, Large [1, 19] | Plant response rating, Crabgrass, Large [1, 20] | Plant response rating, Crabgrass, Large [1, 21] | Plant response rating, Prickly Sida [2, 19] | Plant response rating, Prickly Sida [2, 20] | Plant response rating, Signalgrass [3, 15] | Plant response rating, Signalgrass [3, 16] | Plant response rating, Signalgrass [3, 17] | Plant response rating, Signalgrass [3, 19] | Plant response rating, Signalgrass [3, 20] | Plant response rating, Signalgrass [3, 21] | Plant response rating, Signalgrass [3, 22] | Plant response rating, Quackgrass [4, 15] | Plant response rating, Quackgrass [4, 19] | Plant response rating, Quackgrass [4, 20] | Plant response rating, Quackgrass [4, 21] | Plant response rating, Quackgrass [4, 22] | Plant response rating, Goosegrass [5, 15] | Plant response rating, Goosegrass [5, 16] | Plant response rating, Goosegrass [5, 17] | Plant response rating, Goosegrass [5, 19] | Plant response rating, Goosegrass [5, 20] | Plant response rating, Goosegrass [5, 21] | Plant response rating, Goosegrass [5, 22] | Plant response rating, Chickweed ([6]; 8 g ai/ha) | Plant response rating, Chickweed ([6]; 31 g ai/ha) | Plant response rating, Chickweed ([6]; 62 g ai/ha) | Plant response rating, Morningglory [7, 15] | Plant response rating, Morningglory [7, 16] | Plant response rating, Morningglory [7, 19] | Plant response rating, Morningglory [7, 20] | Plant response rating, Morningglory [7, 21] | Plant response rating, Morningglory [7, 22] | Plant response rating, Foxtail, Green [8, 15] | Plant response rating, Foxtail, Green [8, 16] | Plant response rating, Foxtail, Green [8, 17] | Plant response rating, Foxtail, Green [8, 18] | Plant response rating, Foxtail, Green [8, 19] | Plant response rating, Foxtail, Green [8, 20] | Plant response rating, Foxtail, Green [8, 21] | Plant response rating, Foxtail, Green [8, 22] | Plant response rating, Bindweed, Field [9, 19] | Plant response rating, Bindweed, Field [9, 20] | Plant response rating, Bindweed, Field [9, 21] | Plant response rating, Mallow [10, 19] | Plant response rating, Mallow [10, 21] | Plant response rating, Mallow [10, 22] | Plant response rating, Black Mustard [11, 15] | Plant response rating, Black Mustard [11, 16] | Plant response rating, Black Mustard [11, 17] | Plant response rating, Black Mustard [11, 19] | Plant response rating, Black Mustard [11, 20] | Plant response rating, Bluegrass [12, 15] | Plant response rating, Bluegrass [12, 16] | Plant response rating, Bluegrass [12, 17] | Plant response rating, Bluegrass [12, 18] | Plant response rating, Bluegrass [12, 19] | Plant response rating, Bluegrass [12, 20] | Plant response rating, Bluegrass [12, 21] | Plant response rating, Bluegrass [12, 22] | Plant response rating, Barnyardgrass [13, 15] | Plant response rating, Barnyardgrass [13, 19] | Plant response rating, Barnyardgrass [13, 20] | Plant response rating, Barnyardgrass [13, 21] | Plant response rating, Sandbur [14, 15] | Plant response rating, Sandbur [14, 16] | Plant response rating, Sandbur [14, 19] | Plant response rating, Sandbur [14, 20] | Plant response rating, Sandbur [14, 21] | Plant response rating, Sandbur [14, 22]
80: Plant response rating, Crabgrass, Large [1, 18] | Plant response rating, Bindweed, Field [9, 17] | Plant response rating, Mallow [10, 16]
10: Plant response rating, Black Mustard [11, 18] | Plant response rating, Barnyardgrass [13, 22]
70: Plant response rating, Crabgrass, Large [1, 17] | Plant response rating, Bindweed, Field [9, 16]
